Key:
[1] = test system: burn wounds; experiment: Burn wounds, 7% body surface, topical treatment (rats); type: in vivo, Sprague-Dawley rats; conditions: for mean value of collagen tissue: histopathology day 45; for mean value of collagen concentration relative to placebo group 1 D taken as 100%: day 45
Protocol: The wounding of animals was performed according to the Protocol for Animal Use and Care at the University of California-Davis (hereafter UC-Davis). The entire animal protocol required 70 Sprague-Dawley rats: 30 rats for incision wounds and 40 rats for burn wounds. Among them 36 rats were burned over 7% of their skin and 4 rats were burned over 15% of their skin. Incision wounds of whole skin and burn wounds were treated topically with 2 test doses of the pharmaceutical preparation of di-rhamnolipid BAC-3. […] D.E.A. Hamburg); 23.8 g Lanolinum (Producer I.O.I. Hamburg); 4.7 g Cholesterin (Producer: Solvay, Wiena, Austria); Water Number: 320); or b). 1%; 0.1% active rhamnolipid (BAC-3) with antiseptic (chlorhexidine hydrochloride-[…]). Eucerin with BAC-3 was administrated twice daily during healing. The same experiment had one control group without the treatment, and one control group which was treated with ointment+1% chlorhexidine hydrochloride. During the experiment, animal body weight and behavior was checked every third day, and photographs were taken periodically. Burn wounds. The consecutive burn wounds should ideally be identical in depth and extent. The standard method defines the size and location of the burn wound, the temperature gradient, duration of exposure and method of applying the burn. The wound surface areas tested were of two different sizes. One size to 7% of the body surface, which enables one to compare the rate of wound healing with different percentage of BAC-3 and the other size to 15% of the body surface, which is a sufficient size so that healing could not occur by contraction alone. On the other hand, the total wound surface area should not cause major systematic problems. The latter can be concluded from undisturbed weight gain of the animals. The standard animal burn was performed by techniques and device described by Walker. The burning devices were prepared using a model device ordered from U.S. Army Surgical Research Unit, Experimental Surgery, Army Medical Center, Fort Sam Houston, Tex. 78234. […] The surface of the skin was measured for every animal using Mech's formula: A=kW^2/3; A=surface area in cm^2; W=body weight in grams; k=10. Method of burning. Each animal was anesthetized with sodium pentobarbital administered i/p (5 mg/25 g). (Producer: Veterinary Laboratory Inc. Lenexa, Kans.). The hair over the dorsum was clipped with animal clippers. The animal was placed supine in the burning device and the extremities were tied; the malleable retractor was placed over the animal and secured snugly with plastic straps. The entire device was then picked up by the retractor ends with forceps and the exposed area was immersed in boiling water. Ten seconds of exposure was sufficient to produce a full-thickness burn. On removal from the water, the dorsum was quickly dried by rolling on a towel and the animal was released and individually caged. This procedure produced a uniform burn with sharp margins. On post burn days 7, 14 and 45, animals were sacrificed by overdose of sodium pentobarbital and skin specimens were taken for histopathology. Specimens included the wound bed as well as the healthy skin of the wound margins. The specimens were fixed, and two stainings were routinely performed: Hematoxylin-Eosin (H&E) for microscopic evaluation, Verhoeff's staining for a better visualization of the crust and the regenerating dermis, and the alpha smooth muscle acting to identify the myofibroblasts. Microscopic findings were interpreted by a veterinarian pathologist. During the microscopic and macroscopic observations, four wound healing parameters were evaluated: crust formation, re-epithelialization, formation of granulation tissue and inflammation. 36 rats were divided into 6 groups. Each group had six animals. After burning rats according to the above-described procedure, each rat was caged individually. […]

[2] = test system: incision wounds; experiment: Tensile strength of incision wounds (rats); type: in vivo, Sprague-Dawley rats; conditions: 0.1% BAC-3; 21 days after wounding; p<0.05 by ANOVA; FIG. 3
Protocol: The wounding of animals was performed according to the Protocol for Animal Use and Care at the University of California-Davis (hereafter UC-Davis). The entire animal protocol required 70 Sprague-Dawley rats: 30 rats for incision wounds and 40 rats for burn wounds. Among them 36 rats were burned over 7% of their skin and 4 rats were burned over 15% of their skin. Incision wounds of whole skin and burn wounds were treated topically with 2 test doses of the pharmaceutical preparation of di-rhamnolipid BAC-3. Each dose contained a). 1%, and 0.1% of active di-rhamnolipid (BAC-3) in eucerin (eucerin=71.5 g Vaselinum album (Producer: D.E.A. Hamburg); 23.8 g Lanolinum (Producer I.O.I. Hamburg); 4.7 g Cholesterin (Producer: Solvay, Wiena, Austria); Water Number: 320); or b). 1%; 0.1% active rhamnolipid (BAC-3) with antiseptic (chlorhexidine hydrochloride-PLIVA-Zagreb). Eucerin with BAC-3 was administrated twice daily during healing. The same experiment had one control group without the treatment, and one control group which was treated with ointment+1% chlorhexidine hydrochloride. […]
Tensile Strength Determination. […] The tensile strength of healthy skin was measured in killed animals from each group.
Effect of BAC-3 on Tensile Strength of Incision Wounds (FIG. 3) with and without chlorhexidine hydrochloride. The tensile strength of incision wounds was measured 21 days after wounding. […]

**Q.** Which “body weights among the treatment groups” value ([1]; 1% and 0.1% BAC-3 in eucerin vs vehicle, 45 days) does the source give for `CCCCCCCC(CC(=O)O)OC(=O)CC(CCCCCCC)OC1OC(C)C(O)C(O)C1OC1OC(C)C(O)C(O)C1O` [BAC-3, (α-L-rhamnopyranosyl-(1,2)-α-L-rhamnopyranosyl)-3-hyroxydecanoyl-3-hydroxydecanoic acid] here?
**A.** no significant differences

**Q.** What about the “rate of burn wound closure (decrease in wound size) vs vehicle alone” value ([1]; 7% burn, 0.1% BAC-3 in eucerin twice daily, no chlorhexidine, FIG. 1) of the same molecule?
**A.** significantly faster

**Q.** What about the “burn wound size (distance across wound edges) vs vehicle alone” value ([1]; 7% burn, 0.1% BAC-3 in eucerin, days 14, 21 and 28, p<0.05 by ANOVA, FIG. 2) of the same molecule?
**A.** significantly smaller

**Q.** What about the “crust formation, difference between groups” value ([1]; 7% burn, BAC-3 1% or 0.1% ointment with or without chlorhexidine vs placebo, 45 days) of the same molecule?
**A.** no significant differences

**Q.** What about the granulation tissue ([1]; 7% burn, group 1-A, 1% BAC-3 in ointment twice daily) of the same molecule?
**A.** prominently developed

**Q.** And the “re-epithelization in the middle part of the burn wounds” value ([1]; 7% burn, group 1-B, 0.1% BAC-3 in ointment twice daily)?
**A.** faster

**Q.** What about the “mean value of collagen tissue” value ([1]; 7% burn, group 1 A, 1% BAC-3 ointment, no chlorhexidine) of the same molecule?
**A.** 8.48 mm^2

**Q.** And the “mean value of collagen tissue” value ([1]; 7% burn, group 1 B, 0.1% BAC-3 ointment, no chlorhexidine)?
**A.** 5.15 mm^2

**Q.** What about the granulation tissue ([1]; 7% burn, group 2-A, 1% BAC-3 in ointment plus 1% chlorhexidine hydrochloride twice daily) of the same molecule?
**A.** prominently developed

**Q.** And the “re-epithelization in the middle part of the burn wounds” value ([1]; 7% burn, group 2-B, 0.1% BAC-3 in ointment plus 1% chlorhexidine hydrochloride twice daily)?
**A.** faster

**Q.** What about the “hair growth during the healing period” value ([1]; group 1-A, 1% BAC-3 in ointment, compared to the other groups) of the same molecule?
**A.** very prominent

**Q.** What about the “mean value of collagen concentration relative to placebo group 1 D taken as 100%” value ([1]; group 1 A, 1% BAC-3) of the same molecule?
**A.** 131.26%

**Q.** What about the “mean value of collagen concentration relative to placebo group 1 D taken as 100%” value ([1]; group 1 B, 0.1% BAC-3) of the same molecule?
**A.** 79.72%

**Q.** And the “tensile strength of incision wounds vs corresponding vehicle” value [2]?
**A.** significantly lower
